Measured values: patent publication US11998556B2, “Methods of treating parkinson's disease and/or lewy body disease or disorder(s)” (Athira Pharma, Inc., priority 2021, dated 2024)
Square brackets hold non-standard residues; d marks the D form. Peptide text beside a SMILES is read from it. * marks the point of attachment. pY = N[CH](Cc1ccc(OP(=O)(O)O)cc1)C(=O)O; Hexanoyl = CCCCCC(=O)*; Ahx = NCCCCCC(=O)O

Experiments:
[1] = Clinical studies of ATH-1017: safety and tolerability of single and multiple SC administration; assay type: in vivo, human
[2] = Nonclinical studies (hepatotoxicity risk); assay type: in vivo
[3] = Conversion of prodrug ATH-1017 to active drug ATH-1001 in the plasma after SC injection; assay type: in vivo
From the text: ATH-1017 is an experimental treatment for Lewy body disease or disorder(s) (LBD), including Parkinson's disease dementia (PDD) and/or dementia with Lewy bodies (DLB), formulated as a sterile solution for subcutaneous (SC) injection. […] ATH-1017 was developed as a water-soluble prodrug of ATH-1001 to allow SC dosing in aqueous vehicles. The active drug ATH-1001 acts as an agonist of the hepatocyte growth factor (HGF) receptor and its tyrosine kinase, MET in the brain. The HGF/MET system presents a new therapeutic target to treat neurodegeneration and restore cognitive, behavioral, functional and motor capacities in LBD such as PDD.

[4] = Phase 2 randomized, double-blind, placebo-controlled study in subjects with PDD inclusive of probable DLB; assay type: in vivo, human; conditions: 40 mg/day or 70 mg/day SC OD, 26 weeks
Method: The study is conducted at a total of approximately 15 centers in the USA and optionally Canada. Subjects and their caregivers are required to sign an informed consent form (ICF) and are evaluated against the inclusion/exclusion criteria during a screening period; all eligible subjects will have the option to be tested for glucocerebrosidase (GBA) genotype. Subjects who meet all inclusion/exclusion criteria will undergo baseline ERP P300 assessments at 2 separate baseline visits. At the first baseline assessment (Visit 2a, Pre-baseline, Day-10 to Day-3), ERP P300 is uploaded for quality check immediately after completion of the visit. […] At this Baseline visit (Visit 2b), subjects undergo pre-dose baseline and post-dose ERP P300. […] The first SC injection of study drug is performed on site under supervision. The subject should withhold study drug administration on the day of subsequent clinic visits; study drug administration is done on site under supervision of site staff at these visits. […] During the double-blind treatment period, clinic visits take place on Day 1 and thereafter at Weeks 2, 6, 12, 16, 20, and 26, with a safety follow-up visit scheduled 4 weeks after completion of the double-blind period at Week 30. On Day 1, after completion of the first dose, subjects remain on-site 2 hours for post-treatment clinical observation. […]

CCCCCC(=O)NC(Cc1ccc(OP(=O)(O)O)cc1)C(=O)NC(C(=O)NCCCCCC(N)=O)C(C)CC (stereo not shown) [ATH-1017] (Hexanoyl-[pY]-Ile-[Ahx]-NH2; configuration not given here)
safety and tolerability ([1]; 40 mg SC, OD, over 9 consecutive days, AD subjects): safe and well tolerated
injection site reactions (pain, pruritus, erythema): severity ([1]; SC injection, human clinical studies, resolved without specific therapy): mild in nature
hepatotoxicity ([1]; human studies): has not been observed
CNS-specific adverse events ([1]; humans, to date): no CNS-specific adverse events have been observed
safety and tolerability ([1]; multiple administration of 20, 40, 60 and 80 mg SC, OD, over 9 consecutive days, healthy elderly subjects): safe and well tolerated
safety and tolerability ([1]; single SC administration of 2, 6, 20, 40, 60 and 90 mg, healthy young subjects): safe and well tolerated
hepatotoxicity risk [2]: potential risk for hepatotoxicity identified
conversion of prodrug to active drug ATH-1001 [3]: rapidly converted
safety and tolerability [4]: acceptable safety and tolerability
primary, secondary or exploratory endpoints (GST, ADAS-Cog13, ERP P300 latency etc.) ([4]; versus placebo): achieves one or more of the primary, secondary, or exploratory endpoints
